Drawing on patent US9216991B2 (Ares Trading S.A., priority 2012, dated 2015), this text covers IC50 for 26 compounds.

Where a name gives a salt, the structure may show the parent alone. Bounds are passed on as bounds.

The target of this test is T1, IRAK4 (Homo sapiens, UniProt Q9NWZ3).
T1 construct: His (N); TEV cleavage site (N)
T1 sequence (Q9NWZ3 1-460): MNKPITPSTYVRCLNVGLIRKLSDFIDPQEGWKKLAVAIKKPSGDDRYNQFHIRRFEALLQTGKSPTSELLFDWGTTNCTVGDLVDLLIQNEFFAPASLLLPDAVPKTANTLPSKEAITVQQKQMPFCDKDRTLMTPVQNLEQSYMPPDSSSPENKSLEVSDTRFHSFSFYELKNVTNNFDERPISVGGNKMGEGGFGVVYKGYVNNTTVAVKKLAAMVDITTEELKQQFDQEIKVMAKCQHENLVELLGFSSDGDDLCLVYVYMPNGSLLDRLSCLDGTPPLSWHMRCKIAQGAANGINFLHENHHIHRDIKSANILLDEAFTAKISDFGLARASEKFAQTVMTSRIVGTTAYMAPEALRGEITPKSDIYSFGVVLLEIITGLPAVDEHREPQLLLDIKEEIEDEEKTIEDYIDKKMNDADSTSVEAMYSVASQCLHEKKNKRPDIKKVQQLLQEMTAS
Kind of test: IRAK4 Enzymatic Assay. The test is classed as biochemical. The settings on record: His-TEV-IRAK4 20 ng/well, ATP 2 μM, STK1-biotin peptide 300 nM, 3 hours at 30° C., FlashPlate radioactivity. On the procedure:
IRAK4 is a human purified recombinant enzyme (His-TEV-IRAK1 (194-712)
IRAK4 hydrolyses ATP, autophosphorylates and phosphorylates a Serine/Threonine generic peptidic substrate (STK: 61ST1BLC from CisBio International based in Bagnols/Cèze FR).
Measurement of IRAK-4 inhibition is performed in streptavidin coated 384 well FlashPlate (PerkinElmer #SMP410A). His-TEV-IRAK4 (20 ng/well), ATP (2 μM, [^33P]ATP 0.25 μCi/well), STK1-biotin peptide (300 nM) and compounds in DMSO (range of concentrations from 20 μM to 1nM) or controls (2% DMSO) are incubated for 3 hours at 30° C. in assay buffer: Hepes pH7.0 50 mM, Fatty acid-free BSA 0.1%, Dithiothreitol DTT 2 mM, MgCl2 10 mM, EGTA 0.5 mM, Tween-20 0.01%, MnCl2 5 mM.
Kinase reaction is stopped by addition of EDTA. Supernatant is discarded, plates are washed three times with 150 mM NaCl and radioactivity is then measured in a Microbeta Trilux reader.
One may read the IC50 as the concentration that gives 50% inhibition. As for `NCCCn1cc(-c2cccc(-c3ncc(-c4cnn(CC(=O)N5CCCC5)c4)cn3)c2)cn1` [Example 42, 2-[4-(2-{3-[1-(3-Amino-propyl)-1H-pyrazol-4-yl]-phenyl}-pyrimidin-5-yl)-pyrazol-1-yl]-1-pyrrolidin-1-yl-ethanone hydrochloride], the half-maximal inhibitory concentration (IC50) is 1000 to 5000 nM.
As for `CO[C@@H]1COCCC1N1CCC(n2cc(-c3cnc(-c4cccc(-c5cnn(C)c5)c4)nc3)cn2)CC1` (stereo partly drawn) [Example 122, 5-{1-[1-((S)-3-Methoxy-tetrahydro-pyran-4-yl)-piperidin-4-yl]-1H-pyrazol-4-yl}-2-[3-(1-methyl-1H-pyrazol-4-yl)-phenyl]-pyrimidine], the figure is 100 to 1000 nM.
As for `Cn1cc(-c2cccc(-c3ncc(-c4cnn(C5CCN(C6COC6)CC5)c4)cn3)c2)cn1` [Example 28, 2-[3-(1-Methyl-1H-pyrazol-4-yl)-phenyl]-5-[1-(1-oxetan-3-yl-piperidin-4-yl)-1H-pyrazol-4-yl]-pyrimidine], the figure is 100 to 1000 nM; as for `CNC(=O)[C@H]1CCC[C@H](n2cc(-c3cnc(-c4cccc(-c5cnn(C)c5)c4)nc3)cn2)C1` (relative stereo) [Example 181, trans-3-(4-{2-[3-(1-Methyl-1H-pyrazol-4-yl)-phenyl]-pyrimidin-5-yl}-pyrazol-1-yl)-cyclohexanecarboxylic acid methylamide], 100 to 1000 nM.
In the case of `Cn1cc(-c2cccc(-c3ncc(-c4cnn(CCC5CCOC5)c4)cn3)c2)cn1` (centres unmarked) [Example 131, 2-[3-(1-Methyl-1H-pyrazol-4-yl)-phenyl]-5-{1-[2-(tetrahydro-furan-3-yl)-ethyl]-1H-pyrazol-4-yl}-pyrimidine], the half-maximal inhibitory concentration (IC50) fell in the range of 100 to 1000 nM.
Consider `Cc1c(-c2cccc(-c3ncc(-c4cnn(C5CCNCC5)c4)cn3)c2)cnn1C` [Example 15, 2-[3-(1,5-Dimethyl-1H-pyrazol-4-yl)-phenyl]-5-(1-piperidin-4-yl-1H-pyrazol-4-yl)-pyrimidine hydrochloride], for which the IC50 lay within 100 to 1000 nM.
For the compound `c1cc(-c2cnoc2)cc(-c2ncc(-c3cnn(C4CCNCC4)c3)cn2)c1` [Example 13, 2-(3-Isoxazol-4-yl-phenyl)-5-(1-piperidin-4-yl-1H-pyrazol-4-yl)-pyrimidine hydrochloride], the IC50 lay within 100 to 1000 nM.
As for `CCCn1cc(-c2cccc(-c3ncc(-c4cnn(C5CCNCC5)c4)cn3)c2)cn1` [Example 19, 5-(1-Piperidin-4-yl-1H-pyrazol-4-yl)-2-[3-(1-propyl-1H-pyrazol-4-yl)-phenyl]-pyrimidine hydrochloride], the figure is 100 to 1000 nM; as for `CN1C[C@H]2CC1CN2C(=O)Cn1cc(-c2cnc(-c3cccc(-c4cnn(C)c4)c3)nc2)cn1` (stereo in doubt) [Example 148, 1-((1R,4R)-5-Methyl-2,5-diaza-bicyclo[2.2.1]hept-2-yl)-2-(4-{2-[3-(1-methyl-1H-pyrazol-4-yl)-phenyl]-pyrimidin-5-yl}-pyrazol-1-yl)-ethanone], 1000 to 5000 nM; as for `Cn1cc(-c2cccc(-c3ncc(-c4cnn([C@H]5CC[C@H](C(=O)NC(C)(C)CO)CC5)c4)cn3)c2)cn1` [Example 213, trans-4-(4-{2-[3-(1-Methyl-1H-pyrazol-4-yl)-phenyl]-pyrimidin-5-yl}-pyrazol-1-yl)-cyclohexanecarboxylic acid (2-hydroxy-1,1-dimethyl-ethyl)-amide], below 100 nM.
With `Cn1cc(-c2cccc(-c3ncc(-c4cnn(C5CCN(C(=O)C6CCOCC6)CC5)c4)cn3)c2)cn1` [Example 107, [4-(4-{2-[3-(1-Methyl-1H-pyrazol-4-yl)-phenyl]-pyrimidin-5-yl}-pyrazol-1-yl)-piperidin-1-yl]-(tetrahydro-pyran-4-yl)-methanone], the 50% inhibitory concentration (IC50) is 100 to 1000 nM.
As for `COCC1CCCN(C(=O)Cn2cc(-c3cnc(-c4cccc(-c5cnn(C)c5)c4)nc3)cn2)C1` (centres unmarked) [Example 88, 1-(3-Methoxymethyl-piperidin-1-yl)-2-(4-{2-[3-(1-methyl-1H-pyrazol-4-yl)-phenyl]-pyrimidin-5-yl}-pyrazol-1-yl)-ethanone], the figure is 100 to 1000 nM; as for `Cn1cc(-c2cccc(-c3ncc(-c4cnn([C@H]5CC[C@H](C(=O)NC(C)(C)C)CC5)c4)cn3)c2)cn1` [Example 192, Trans-4-(4-{2-[3-(1-Methyl-1H-pyrazol-4-yl)-phenyl]-pyrimidin-5-yl}-pyrazol-1-yl)-cyclohexanecarboxylic acid tert-butylamide], below 100 nM.
For the compound `c1ccc(Cn2cc(-c3cccc(-c4ncc(-c5cnn(C6CCNCC6)c5)cn4)c3)cn2)cc1` [Example 21, 2-[3-(1-Benzyl-1H-pyrazol-4-yl)-phenyl]-5-(1-piperidin-4-yl-1H-pyrazol-4-yl)-pyrimidine hydrochloride], the IC50 is 100 to 1000 nM.
Turning to `Cc1cc(-c2cccc(-c3ncc(-c4cnn(C5CCOCC5)c4)cn3)c2)cnn1` [Example 138, 3-Methyl-5-(3-{5-[1-(tetrahydro-pyran-4-yl)-1H-pyrazol-4-yl]-pyrimidin-2-yl}-phenyl)-pyridazine], the IC50 was 100 to 1000 nM.
For `CC(=O)N1CC[C@@H](n2cc(-c3cnc(-c4cccc(-c5cnn(C)c5)c4)nc3)cn2)C[C@H]1C` [Example 249, 1-[(2R,4R)-2-Methyl-4-(4-{2-[3-(1-methyl-1H-pyrazol-4-yl)-phenyl]-pyrimidin-5-yl}-pyrazol-1-yl)-piperidin-1-yl]-ethanone] the value was 100 to 1000 nM; for `COCC(O)Cn1cc(-c2cnc(-c3cccc(-c4cnn(C)c4)c3)nc2)cn1` (centres unmarked) [Example 35, 1-Methoxy-3-(4-{2-[3-(1-methyl-1H-pyrazol-4-yl)-phenyl]-pyrimidin-5-yl}-pyrazol-1-yl)-propan-2-ol], 1000 to 5000 nM.
For `Cn1cc(-c2cccc(-c3ncc(-c4cnn(CC(O)CO)c4)cn3)c2)cn1` (centres unmarked) [Example 212, 3-(4-{2-[3-(1-Methyl-1H-pyrazol-4-yl)-phenyl]-pyrimidin-5-yl}-pyrazol-1-yl)-propane-1,2-diol] the value was 100 to 1000 nM; for `Cn1cc(-c2cccc(-c3ncc(-c4cnn([C@H]5CC[C@H](C(=O)NCC(O)CO)CC5)c4)cn3)c2)cn1` (stereo partly drawn) [Example 242, Trans-4-(4-{2-[3-(1-Methyl-1H-pyrazol-4-yl)-phenyl]-pyrimidin-5-yl}-pyrazol-1-yl)-cyclohexanecarboxylic acid (2,3-dihydroxy-propyl)-amide], below 100 nM.
With `CN(C)C(=O)[C@H]1C[C@H]2COC[C@@H](C1)[C@@H]2n1cc(-c2cnc(-c3cccc(-c4cnn(C)c4)c3)nc2)cn1` [Example 194, cis-cis-9-(4-{2-[3-(1-Methyl-1H-pyrazol-4-yl)-phenyl]-pyrimidin-5-yl}-pyrazol-1-yl)-3-oxa-bicyclo[3.3.1]nonane-7-carboxylic acid dimethylamide], the concentration for half-maximal inhibition (IC50) lay within 1000 to 5000 nM.
As for `COC1CN(C(=O)CCn2cc(-c3cnc(-c4cccc(-c5cnn(C)c5)c4)nc3)cn2)C1` [Example 100, 1-(3-Methoxy-azetidin-1-yl)-3-(4-{2-[3-(1-methyl-1H-pyrazol-4-yl)-phenyl]-pyrimidin-5-yl}-pyrazol-1-yl)-propan-1-one], the figure is 1000 to 5000 nM.
For `Cn1cc(-c2ccc(F)c(-c3ncc(-c4cnn([C@H]5CC[C@H](O)CC5)c4)cn3)c2)cn1` [Example 292, 4-(4-{2-[2-Fluoro-5-(1-methyl-1H-pyrazol-4-yl)-phenyl]-pyrimidin-5-yl}-pyrazol-1-yl)-cyclohexanol], the IC50 lay within 100 to 1000 nM.
For `Cn1cc(-c2cccc(-c3ncc(-c4cnn(C5CCN(C(=O)C6CCCCO6)CC5)c4)cn3)c2)cn1` (centres unmarked) [Example 108, [4-(4-{2-[3-(1-Methyl-1H-pyrazol-4-yl)-phenyl]-pyrimidin-5-yl}-pyrazol-1-yl)-piperidin-1-yl]-(tetrahydro-pyran-2-yl)-methanone] the value was 100 to 1000 nM; for `CN(C)C(=O)[C@H]1CC[C@H](n2cc(-c3cnc(-c4cccc(-c5ccnnc5)c4)nc3)cn2)CC1` [Example 233, Trans-4-{4-[2-(3-Pyridazin-4-yl-phenyl)-pyrimidin-5-yl]-pyrazol-1-yl}-cyclohexanecarboxylic acid dimethylamide], 100 to 1000 nM.
As for `Cn1cc(-c2cccc(-c3ncc(-c4cnn(C5CCOC6(CCOCC6)C5)c4)cn3)c2)cn1` (centres unmarked) [Example 267, 5-[1-(1,9-Dioxa-spiro[5.5]undec-4-yl)-1H-pyrazol-4-yl]-2-[3-(1-methyl-1H-pyrazol-4-yl)-phenyl]-pyrimidine], the figure is below 100 nM; as for `COCCC1CN(C(=O)Cn2cc(-c3cnc(-c4cccc(-c5cnn(C)c5)c4)nc3)cn2)CCO1` (centres unmarked) [Example 87, 1-[2-(2-Methoxy-ethyl)-morpholin-4-yl]-2-(4-{2-[3-(1-methyl-1H-pyrazol-4-yl)-phenyl]-pyrimidin-5-yl}-pyrazol-1-yl)-ethanone], 100 to 1000 nM.
